According to US12522877B2, “Early detection of drug-resistant mycobacterium tuberculosis” (The Translational Genomics Research Institute, priority 2020, dated 2026):
Entries after “also recorded” stand apart in the source; their conditions may differ.

Legend:
[1] = tested on: M. tuberculosis isolates; set-up: species or system Mycobacterium tuberculosis
[2] = tested on: M. tuberculosis isolates; format: cell-based, Mycobacterium tuberculosis
[3] = tested on: M. tuberculosis isolates; format: cell-based, Mycobacterium tuberculosis; remark: listed apart in the source

Row | SMILES | GenoType MTBDRplus [1] | Genotype MTBDRplus result [1] | Phenotypic susceptibility to bedaquiline [2] | patients phenotypically and genotypically resistant to bedaquiline [3] [%]
1 | NNC(=O)c1ccncc1 [Isoniazid] | R | low-level isoniazid resistance | – | –
2 | COc1nc2ccc(Br)cc2cc1[C@@H](c1ccccc1)[C@@](O)(CCN(C)C)c1cccc2ccccc12 [bedaquiline] | – | – | phenotypically susceptible; also recorded: phenotypically resistant | 47
3 | CO[C@H]1/C=C/O[C@@]2(C)Oc3c(C)c(O)c4c(O)c(c(/C=N/N5CCN(C)CC5)c(O)c4c3C2=O)NC(=O)/C(C)=C\C=C\[C@H](C)[C@H](O)[C@@H](C)[C@@H](O)[C@@H](C)[C@H](OC(C)=O)[C@@H]1C [Rifampicin] | R | – | – | –
